Patent US9765075B2, “Substituted bridged urea analogs as sirtuin modulators” (GLAXOSMITHKLINE LLC, priority 2013, dated 2017)

Experiments:
SIRT1 = target: T1, SIRT1 (Homo sapiens, UniProt Q96EB6); assay: Trp mass spectrometry assay (SIRT1 activation); assay type: biochemical; conditions: Trp mass spectrometry assay; for Tryp AVG EC1.5 (μM): EC1.5 = concentration giving 150% activation of SIRT1; for Emax: percent maximum fold activation of SIRT1, read-out: Tryp % Fold Act
T1 sequence (Q96EB6 1-747): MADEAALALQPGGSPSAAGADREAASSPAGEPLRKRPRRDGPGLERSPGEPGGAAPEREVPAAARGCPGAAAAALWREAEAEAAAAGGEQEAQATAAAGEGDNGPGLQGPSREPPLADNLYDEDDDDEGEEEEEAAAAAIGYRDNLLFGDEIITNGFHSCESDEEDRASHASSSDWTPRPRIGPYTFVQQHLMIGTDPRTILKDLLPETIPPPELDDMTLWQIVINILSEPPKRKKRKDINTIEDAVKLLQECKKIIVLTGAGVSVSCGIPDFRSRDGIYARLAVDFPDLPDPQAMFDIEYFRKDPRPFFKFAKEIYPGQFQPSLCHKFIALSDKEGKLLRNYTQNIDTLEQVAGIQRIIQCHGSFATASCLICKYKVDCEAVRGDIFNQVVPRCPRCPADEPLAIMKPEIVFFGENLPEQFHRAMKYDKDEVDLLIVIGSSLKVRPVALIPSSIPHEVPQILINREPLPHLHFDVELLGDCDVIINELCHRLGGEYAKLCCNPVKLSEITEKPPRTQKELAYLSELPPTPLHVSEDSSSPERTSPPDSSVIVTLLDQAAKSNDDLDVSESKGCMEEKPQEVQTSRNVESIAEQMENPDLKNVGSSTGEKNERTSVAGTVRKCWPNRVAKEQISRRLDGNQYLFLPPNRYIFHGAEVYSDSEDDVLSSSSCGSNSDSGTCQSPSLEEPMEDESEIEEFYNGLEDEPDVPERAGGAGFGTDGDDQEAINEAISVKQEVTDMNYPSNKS
Procedure, shortened: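 N-His-tagged SIRT1 (10 nM), expressed in E. coli, was incubated with 0.5 μM Ac-RHKK(Ac)W-NH2 peptide and 120 μM NAD+ for 25 min at 25 °C in HEPES pH 7.5 with […]. The reaction was stopped with formic acid and O-acetyl-ADP-ribose or deacetylated peptide was quantified by mass spectrometry. Results are given as EC1.5 and percent maximal activation relative to DMSO control.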

mini-hSIRT1 = assay: Inhibition of mini-hSIRT1 constructs compared with the full-length enzyme; assay type: biochemical, human
Method: Final concentrations of the PNC1/GDH coupling system components used were 20 units/mL bovine GDH (Sigma-Aldrich), 1 uM yeast PNC1, 3.4 mM α-ketoglutarate, and 220 μM NADH or NADPH. An extinction coefficient of 6.22 mM^−1 cm^−1 and a pathlength of 0.81 cm was used to convert the absorbance at 340 nm to product concentration for the 150 uL reactions used. […] Quenched reactions were diluted 5-fold with 1:1 acetonitrile:methanol and spun at 5,000×g for 10 minutes to precipitate protein before being analyzed with an Agilent RapidFire 200 High-Throughput Mass Spectrometry System (Agilent, Wakefield, Mass.) coupled to an ABSciex API 4000 mass spectrometer fitted with an electrospray ionization source. The p53-based Ac-p53(W5) (Ac-RHKK^AcW-NH2) and FOXO-3a 21-mer (Ac-[…]^Ac[…]-NH2) peptides were obtained from Biopeptide, Inc. Deacetylation assays used the Ac-p53(W5) substrate unless otherwise noted.
Substrate KM determinations were performed by varying one substrate concentration at a fixed, saturating concentration of the second substrate. SIRT1 activation and inhibition assays were run in reaction buffer with 0.05% BSA at 25° C. and analyzed using the OAcADPr assay. Enzyme and compound were pre-incubated for 20 minutes before addition of substrates. […]

[N-]=[N+]=NCC(=O)NCc1ccc(NC(=O)N2c3nc(-c4cccc(C(F)(F)F)c4)ccc3N3CC[C@H]2C3)cc1 [Example 799]
Tryp AVG EC1.5 (μM) (SIRT1): A (EC1.5<1 μM) | Emax (SIRT1): ≥ 150%

C#CCOc1cc(-c2ccc3c(n2)N(C(=O)Nc2cccc(C4(C(F)(F)F)N=N4)c2)[C@H]2CCN3C2)cc(C(F)(F)F)c1 [Example 800]
Tryp AVG EC1.5 (μM) (SIRT1): C (EC1.5>25 μM) | Emax (SIRT1): < 150%

C#CCOc1cccc(NC(=O)N2c3nc(-c4ccc(C5(C(F)(F)F)N=N5)cc4)ccc3N3CC[C@H]2C3)c1 [Example 802]
Tryp AVG EC1.5 (μM) (SIRT1): B (EC1.5 1-25 μM) | Emax (SIRT1): ≥ 150%

C#Cc1ccc(NC(=O)N2c3nc(-c4cccc(C5(C(F)(F)F)N=N5)c4)ccc3N3CC[C@H]2C3)nc1 [Example 803]
Tryp AVG EC1.5 (μM) (SIRT1): A (EC1.5<1 μM) | Emax (SIRT1): ≥ 150%

C#CCNc1nccc(NC(=O)N2c3nc(-c4cccc(C5(C(F)(F)F)N=N5)c4)ccc3N3CC[C@H]2C3)n1 [Example 804]
Tryp AVG EC1.5 (μM) (SIRT1): A (EC1.5<1 μM) | Emax (SIRT1): ≥ 150%

C#CCNc1nccc(NC(=O)N2c3nc(-c4ccc(C5(C(F)(F)F)N=N5)cc4)ccc3N3CC[C@H]2C3)n1 [Example 805]
Tryp AVG EC1.5 (μM) (SIRT1): B (EC1.5 1-25 μM) | Emax (SIRT1): ≥ 150%

[N-]=[N+]=NCc1cc(N=[N+]=[N-])cc(-c2ccc3c(n2)N(C(=O)Nc2ccc(F)cn2)[C@H]2CCN3C2)c1 [Example 806]
Tryp AVG EC1.5 (μM) (SIRT1): A (EC1.5<1 μM) | Emax (SIRT1): ≥ 150%

C#Cc1ccc(NC(=O)N2c3nc(-c4ccc(C5(C(F)(F)F)N=N5)cc4)ccc3N3CC[C@H]2C3)nc1 [Example 807]
Tryp AVG EC1.5 (μM) (SIRT1): C (EC1.5>25 μM) | Emax (SIRT1): < 150%

[N-]=[N+]=NCc1cc(N=[N+]=[N-])cc(-c2ccc3c(n2)N(C(=O)Nc2cnccn2)[C@H]2CCN3C2)c1 [Example 808]
Tryp AVG EC1.5 (μM) (SIRT1): A (EC1.5<1 μM) | Emax (SIRT1): ≥ 150%

C#CCNc1nccc(NC(=O)N2c3nc(-c4cccc(C5(C(F)(F)F)N=N5)c4)ccc3N3CC[C@H]2C3)n1 [Example 809]
Tryp AVG EC1.5 (μM) (SIRT1): B (EC1.5 1-25 μM) | Emax (SIRT1): ≥ 150%

O=C(Nc1ccncc1)N1c2nc(-c3cccc(C(F)(F)F)c3)ccc2N2CC[C@H]1C2 [Example 817]
Tryp AVG EC1.5 (μM) (SIRT1): A (EC1.5<1 μM) | Emax (SIRT1): ≥ 150%

O=C(Nc1cccc(OC[C@H](O)CO)n1)N1c2nc(-c3cccc(C(F)(F)F)c3)ccc2N2CC[C@H]1C2 [Example 818]
Tryp AVG EC1.5 (μM) (SIRT1): A (EC1.5<1 μM) | Emax (SIRT1): ≥ 150%

O=C(Nc1ccccn1)N1c2nc(-c3cccc(C(F)(F)F)c3)ccc2N2CCC[C@H]1C2 [Example 820]
Tryp AVG EC1.5 (μM) (SIRT1): A (EC1.5<1 μM) | Emax (SIRT1): ≥ 150%

O=C(Nc1ccncc1)N1c2nc(-c3cccc(C(F)(F)F)c3)ccc2N2CCC[C@H]1C2 [Example 821]
Tryp AVG EC1.5 (μM) (SIRT1): A (EC1.5<1 μM) | Emax (SIRT1): ≥ 150%

O=C(Nc1cccnn1)N1c2nc(-c3cccc(Cl)c3)ccc2N2CC[C@H]1C2 [Example 822]
Tryp AVG EC1.5 (μM) (SIRT1): A (EC1.5<1 μM) | Emax (SIRT1): ≥ 150%

O=C(Nc1ccccn1)N1c2nc(-c3cccc(C(F)(F)F)c3)ccc2N2CC[C@@H]1C2 [Example 823]
Tryp AVG EC1.5 (μM) (SIRT1): A (EC1.5<1 μM) | Emax (SIRT1): ≥ 150%

O=C(Nc1ccncc1)N1c2nc(-c3cccc(C(F)(F)F)c3)ccc2N2CC[C@@H]1C2 [Example 824]
Tryp AVG EC1.5 (μM) (SIRT1): A (EC1.5<1 μM) | Emax (SIRT1): ≥ 150%

NC(=O)c1cccnc1 [NAM, nicotinamide]
IC50 values, mini-hSIRT1 constructs versus full-length enzyme (mini-hSIRT1): comparable
